Assay results as given in patent publication EP1149907A1, “EDG8 receptor, its preparation and use” (Aventis Pharma Deutschland GmbH, priority 2000, dated 2001).

Key:
Assay in all cases: FLIPR assay of intracellular Ca2+ mobilization in transiently transfected CHO cells
[1] = system: human EDG8, SEQ ID NO. 2; format: cell-based; details: for increase in intracellular Ca2+ ([Ca2+]i): CHO cells transiently transfected with EDG8 and G-protein α subunits G16 and Gqi5, lipids applied at 10, 100 and 1000 nM (Fig.3)
Method: Fig.2 depicts measurement of the intracellular Ca2+ concentration, mediated by S1P via the different S1P-receptors EDG1, 3, 5, 6 and the putative S1P-receptor EDG8, cotransfected in CHO cells with empty vector DNA as a control or various G-protein α subunits. Intracellular Ca2+ concentrations were recorded as real time measurements using the Fluorescence plate imaging reader (FLIPR, Molecular Devices). […] As already known for a large number of Gq-coupled receptors, coexpression of Gaq augments the EDG1 and 5-mediated Ca2+-release as compared with the Ca2+ signal induced by stimulation of endogeneous Gaq. […] The reason for this discrepancy could be the cellular background, as Yamazaki Y. et al. (2000) reported that the Ca2+ signal can be completely abolished in the presence of pertussis toxin (PTX), indicating the involvement of Gi-type G-proteins. In this case the Ca2+ signal would be elicited by bg, released from activated Gaibg heterotrimers. The Gαi-induced Ca2+ signals are known to be much smaller in intensity as compared with the Ca2+ signals induced by bona-fide Gq-linked receptors (Kostenis et al., 1997a; Kostenis et al., 1997b). It may be that detection of such Ca2+ concentrations is beyond the sensitivity of the FLIPR system. […] To check, whether the EDG8 receptor also reacts to related lysophospholipid mediators, we examined the abilities of lysophosphatidic acid (LPA), dihydrosphingosin 1-phosphate (DHS1P), sphingosylphosphorylcholine (SPC) and lysophosphatidylcholine (LPC) to increase intracellular Ca2+ in CHO cells transiently transfected with the EDG8 receptor and the G-protein α subunits G16 and Gqi5 (Fig.3).
(§1) Fig.2: Mobilization of intracellular Ca^2+ by S1P mediated by the EDG1, 3, 5 and 8 receptor in CHO cells, cotransfected with empty vector DNA as a control or the indicated G-protein α subunits. Agonist-mediated changes of intracellular Ca^2+ were measured with the FLIPR using the Ca^2+-sensitive dye FLUO4. Fluorescence of transfected cells loaded with FLUO4 was recorded before and after addition of S1P, applied in the indicated concentrations. Data are expressed as means of quadruplicate determinations in a single experiment. An additional experiment gave similar results.
Fig.3: Effects of S1P, LPA and related lysophospholipid mediators on EDG8-mediated increase in intracellular Ca^2+ measured with the FLIPR as described in the legend of […]. The different lipids were applied in concentrations of 10, 100 and 1000 nM, respectively. Data are means of quadruplicate determinations of a representative experiment. Two additional experiments gave similar results.
CHO-K1 cells were grown in basal ISCOVE medium supplemented with 10% fetal bovine serum at 37°C in a humidified 5% CO2 incubator. For transfections, 2 x 10^5 cells were seeded into 35-mm dishes. About 24 hr later cells were transiently transfected at 50-80% confluency with the indicated receptor and G-protein constructs (1µg of plasmid DNA each) using the Lipofectamine transfection reagent and the supplied protocol (GIBCO). 18-24 hr after transfection cells were seeded into 96well plates at a density of 50.000 cells per well and cultured for 18-24 additional hr until used in the functional FLIPR assays. The cDNA for Gα16 was cloned from TF1 cells by RT-PCR and ligated into the pCDNA1.1 mammalian expression vector (Invitrogen). Murine wild type Gαq was cloned from cells by RT-PCR and inserted into the BamHI-NsiI-sites of pCDNA1.1. To create the C-terminally modified Gαqi5 subunit, in which the last five aa of wt Gαq were replaced with the correspoding Gαi sequence, a 175-bp Bg/II-NsiI fragment was replaced, in a two piece ligation, with a synthetic DNA fragment, containing the desired codon changes. The correctness of all PCR-derived sequences was verified by sequencing in both directions.
Twenty-four hours after transfection, cells were splitted into 96-well, black-wall microplates (Corning) at a density of 50,000 cells per well. […]

[2] = system: EDG6; format: cell-based, human; details: CHO cells transfected with EDG6, no cotransfected G-protein α subunit
Method: (§2) Fig.2 depicts measurement of the intracellular Ca2+ concentration, mediated by S1P via the different S1P-receptors EDG1, 3, 5, 6 and the putative S1P-receptor EDG8, cotransfected in CHO cells with empty vector DNA as a control or various G-protein α subunits. Intracellular Ca2+ concentrations were recorded as real time measurements using the Fluorescence plate imaging reader (FLIPR, Molecular Devices). […] As already known for a large number of Gq-coupled receptors, coexpression of Gaq augments the EDG1 and 5-mediated Ca2+-release as compared with the Ca2+ signal induced by stimulation of endogeneous Gaq. […] The reason for this discrepancy could be the cellular background, as Yamazaki Y. et al. (2000) reported that the Ca2+ signal can be completely abolished in the presence of pertussis toxin (PTX), indicating the involvement of Gi-type G-proteins. In this case the Ca2+ signal would be elicited by bg, released from activated Gaibg heterotrimers. The Gαi-induced Ca2+ signals are known to be much smaller in intensity as compared with the Ca2+ signals induced by bona-fide Gq-linked receptors (Kostenis et al., 1997a; Kostenis et al., 1997b). It may be that detection of such Ca2+ concentrations is beyond the sensitivity of the FLIPR system. […]

[3] = system: EDG1; format: cell-based, human; details: CHO cells transfected with EDG1, no cotransfected G-protein α subunit (Fig.2)
Method: as §2
as §1, with “An additional experiment gave similar results.” left out

[4] = system: EDG5; format: cell-based, human; details: CHO cells transfected with EDG5, no cotransfected G-protein α subunit (Fig.2)
Method: as §2
as §1, with “An additional experiment gave similar results.” left out

[5] = system: EDG3; format: cell-based, human; details: CHO cells transfected with EDG3, no cotransfected G-protein α subunit (Fig.2)
Method: as §2
as §1, with “An additional experiment gave similar results.” left out

## CCCCCCCCCCCCCCC[C@@H](O)[C@@H](N)COP(=O)(O)O [DHS1P, dihydrosphingosin 1-phosphate]
[1]
  increase in intracellular Ca2+ ([Ca2+]i): evoked [Ca2+]i increases in concentrations of 100 and 1000 nM

## CCCCCCCC/C=C\CCCCCCCC(=O)OCC(O)COP(=O)(O)O (centres unmarked) [LPA, lysophosphatidic acid]
[1]
  increase in intracellular Ca2+ ([Ca2+]i): evoked [Ca2+]i increases in concentrations of 100 and 1000 nM

## CCCCCCCCCCCCC/C=C/[C@@H](O)[C@@H](N)COP(=O)(O)O [S1P, sphingosin 1-phosphate]
[2]
  mobilization of intracellular Ca2+: failed to detect a significant Ca2+ increase above basal levels
[1]; CHO cells cotransfected with EDG8 and Gα16 or Gαqi5 (Fig.2)
  mobilization of intracellular Ca2+: gained the ability to mobilize Ca2+
[1]; CHO cells transfected with EDG8, no cotransfected G-protein α subunit (Fig.2)
  mobilization of intracellular Ca2+: did not release intracellular Ca2+
[1]
  increase in intracellular Ca2+ ([Ca2+]i): most potent activator of EDG8
[3]
  mobilization of intracellular Ca2+: elicited intracellular Ca2+ signals
[4]
  mobilization of intracellular Ca2+: elicited intracellular Ca2+ signals
[5]
  mobilization of intracellular Ca2+: elicited intracellular Ca2+ signals

## CCCCCCCCCCCCC/C=C/[C@@H](O)[C@@H](N)COP(=O)([O-])OCC[N+](C)(C)C [SPC, sphingosylphosphorylcholine]
[1]
  increase in intracellular Ca2+ ([Ca2+]i): failed to generate any significant response in concentrations up to 1 µM

## lysophosphatidylcholine [LPC]
[1]
  increase in intracellular Ca2+ ([Ca2+]i): failed to generate any significant response in concentrations up to 1 µM
